According to article PMC9150124, “Design of a Potent, Selective, and Brain-Penetrant Inhibitor of Wnt-Deactivating Enzyme Notum by Optimization of a Crystallographic Fragment Hit” (Journal of Medicinal Chemistry, 2022):

Columns and labels:
Test in all cases: SelectScreen kinase profiling, SSBK ZLyte SP Technology
Format in all cases: biochemical
[1] = target: kinase named in conditions (Homo sapiens, UniProt P34947); conditions: GRK5, 10 μM
Description: (§1) Kinase selectivity screening was performed by Thermo Fisher Scientific (Paisley, U.K.) in their SelectScreen Biochemical Kinase Profiling Service. Assay information and data are presented in the Supporting Information.
(§2) Kinase selectivity screening was performed by ThermoFisher Scientific (Paisley, U.K.) in their SelectScreenTM
(§3) Biochemical Kinase Profiling service .

[2] = target: kinase named in conditions (Homo sapiens, UniProt Q96L34); conditions: MARK4, 10 μM
Description: as §1, §2, §3

[3] = target: kinase named in conditions (Homo sapiens, UniProt P49840); conditions: GSK3A (GSK3 alpha), 10 μM
Sequence of kinase named in conditions (Homo sapiens, UniProt P49840) (P49840 whole entry): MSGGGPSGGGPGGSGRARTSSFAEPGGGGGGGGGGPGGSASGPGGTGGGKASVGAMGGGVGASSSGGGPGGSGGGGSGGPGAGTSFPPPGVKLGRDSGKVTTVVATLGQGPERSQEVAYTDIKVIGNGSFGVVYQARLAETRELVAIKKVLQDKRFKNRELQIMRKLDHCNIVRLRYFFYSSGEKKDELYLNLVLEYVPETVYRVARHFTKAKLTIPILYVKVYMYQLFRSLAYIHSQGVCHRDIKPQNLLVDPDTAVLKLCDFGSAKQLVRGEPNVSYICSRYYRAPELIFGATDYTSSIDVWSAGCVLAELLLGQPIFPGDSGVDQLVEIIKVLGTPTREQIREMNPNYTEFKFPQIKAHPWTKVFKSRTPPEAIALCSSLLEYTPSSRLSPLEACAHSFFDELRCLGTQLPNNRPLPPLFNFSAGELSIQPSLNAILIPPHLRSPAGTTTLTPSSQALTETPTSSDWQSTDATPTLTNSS
Description: as §1, §2, §3

[4] = target: kinase named in conditions (Homo sapiens, UniProt P00533, L861Q); conditions: EGFR (ErbB1) L861Q, 10 μM
Description: as §1, §2, §3

[5] = target: kinase named in conditions (Homo sapiens, UniProt P16234, D842V); conditions: PDGFRA D842V, 10 μM
Sequence of kinase named in conditions (Homo sapiens, UniProt P16234, D842V) (P16234 24-1089 D842V): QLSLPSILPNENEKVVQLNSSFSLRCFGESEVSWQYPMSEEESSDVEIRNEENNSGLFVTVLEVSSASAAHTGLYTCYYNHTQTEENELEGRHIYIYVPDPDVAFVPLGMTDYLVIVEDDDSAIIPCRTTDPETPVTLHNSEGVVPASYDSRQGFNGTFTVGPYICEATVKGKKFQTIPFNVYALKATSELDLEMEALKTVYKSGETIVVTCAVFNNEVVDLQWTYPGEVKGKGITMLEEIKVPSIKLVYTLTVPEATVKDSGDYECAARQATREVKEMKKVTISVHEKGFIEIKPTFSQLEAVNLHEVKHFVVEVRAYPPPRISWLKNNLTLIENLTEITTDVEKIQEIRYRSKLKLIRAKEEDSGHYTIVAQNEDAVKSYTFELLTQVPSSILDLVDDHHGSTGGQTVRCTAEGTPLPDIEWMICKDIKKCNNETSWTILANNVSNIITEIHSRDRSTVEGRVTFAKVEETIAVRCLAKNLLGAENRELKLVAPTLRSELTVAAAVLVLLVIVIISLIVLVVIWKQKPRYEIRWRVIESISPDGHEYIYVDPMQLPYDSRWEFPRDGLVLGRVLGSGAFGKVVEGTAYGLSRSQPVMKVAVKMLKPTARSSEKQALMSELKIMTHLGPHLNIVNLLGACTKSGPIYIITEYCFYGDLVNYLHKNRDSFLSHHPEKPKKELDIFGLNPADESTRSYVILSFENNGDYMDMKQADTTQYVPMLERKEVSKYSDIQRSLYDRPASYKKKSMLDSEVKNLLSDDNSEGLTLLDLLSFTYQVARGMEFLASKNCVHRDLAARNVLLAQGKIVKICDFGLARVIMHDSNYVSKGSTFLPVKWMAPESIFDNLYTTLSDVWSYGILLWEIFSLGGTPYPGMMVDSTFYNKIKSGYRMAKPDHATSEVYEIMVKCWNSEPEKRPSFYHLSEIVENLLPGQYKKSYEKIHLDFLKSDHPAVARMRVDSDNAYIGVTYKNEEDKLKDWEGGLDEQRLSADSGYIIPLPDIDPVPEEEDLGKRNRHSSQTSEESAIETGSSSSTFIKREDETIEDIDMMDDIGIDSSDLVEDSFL
Description: as §1, §2, §3

[6] = system: kinase named in conditions
Description: as §1, §2, §3

[7] = target: kinase named in conditions (Homo sapiens, UniProt Q13557); conditions: CAMK2D (CaMKII delta), 10 μM
Description: as §1, §2, §3

[8] = target: kinase named in conditions (Homo sapiens, UniProt P31751); conditions: AKT2 (PKB beta), 10 μM
Sequence of kinase named in conditions (Homo sapiens, UniProt P31751) (P31751 whole entry): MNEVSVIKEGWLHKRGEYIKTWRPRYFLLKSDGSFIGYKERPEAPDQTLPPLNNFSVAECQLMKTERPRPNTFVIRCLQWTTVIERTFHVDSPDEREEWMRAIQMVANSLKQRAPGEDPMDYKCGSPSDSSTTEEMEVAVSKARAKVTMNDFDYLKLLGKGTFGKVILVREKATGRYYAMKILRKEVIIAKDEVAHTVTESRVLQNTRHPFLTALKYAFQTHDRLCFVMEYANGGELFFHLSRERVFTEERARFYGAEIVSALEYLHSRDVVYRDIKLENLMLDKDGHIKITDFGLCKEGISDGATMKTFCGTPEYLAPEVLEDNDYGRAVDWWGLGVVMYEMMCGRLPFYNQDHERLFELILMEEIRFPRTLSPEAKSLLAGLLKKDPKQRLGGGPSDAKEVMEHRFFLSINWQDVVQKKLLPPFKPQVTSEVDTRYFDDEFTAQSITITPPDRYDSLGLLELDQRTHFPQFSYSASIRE
Description: as §1, §2, §3

[9] = target: kinase named in conditions (Homo sapiens, UniProt Q9P286); conditions: PAK7 (KIAA1264), 10 μM
Description: as §1, §2, §3

[10] = target: kinase named in conditions (Homo sapiens, UniProt P15735); conditions: PHKG2, 10 μM
Description: as §1, §2, §3

[11] = target: kinase named in conditions (Homo sapiens, UniProt O75116); conditions: ROCK2, 10 μM
Description: as §1, §2, §3

[12] = target: kinase named in conditions (Homo sapiens, UniProt Q9Y243); conditions: AKT3 (PKB gamma), 10 μM
Description: as §1, §2, §3

[13] = target: kinase named in conditions (Homo sapiens, UniProt Q8N752); conditions: CSNK1A1L, 10 μM
Description: as §1, §2, §3

[14] = target: kinase named in conditions (Homo sapiens, UniProt Q05513); conditions: PRKCZ (PKC zeta), 10 μM
Description: as §1, §2, §3

[15] = target: kinase named in conditions (Homo sapiens, UniProt P09769); conditions: FGR, 10 μM
Description: as §1, §2, §3

[16] = target: kinase named in conditions (Homo sapiens, UniProt O15264); conditions: MAPK13 (p38 delta), 10 μM
Description: as §1, §2, §3

[17] = target: kinase named in conditions (Homo sapiens, UniProt O14757); conditions: CHEK1 (CHK1), 10 μM
Description: as §1, §2, §3

[18] = target: kinase named in conditions (Homo sapiens, UniProt Q96NX5); conditions: CAMK1G (CAMKI gamma), 10 μM
Description: as §1, §2, §3

[19] = target: kinase named in conditions (Homo sapiens, UniProt Q9H1R3); conditions: MYLK2 (skMLCK), 10 μM
Description: as §1, §2, §3

[20] = target: kinase named in conditions (Homo sapiens, UniProt P08069); conditions: IGF1R, 10 μM
Sequence of kinase named in conditions (Homo sapiens, UniProt P08069) (P08069 31-1367): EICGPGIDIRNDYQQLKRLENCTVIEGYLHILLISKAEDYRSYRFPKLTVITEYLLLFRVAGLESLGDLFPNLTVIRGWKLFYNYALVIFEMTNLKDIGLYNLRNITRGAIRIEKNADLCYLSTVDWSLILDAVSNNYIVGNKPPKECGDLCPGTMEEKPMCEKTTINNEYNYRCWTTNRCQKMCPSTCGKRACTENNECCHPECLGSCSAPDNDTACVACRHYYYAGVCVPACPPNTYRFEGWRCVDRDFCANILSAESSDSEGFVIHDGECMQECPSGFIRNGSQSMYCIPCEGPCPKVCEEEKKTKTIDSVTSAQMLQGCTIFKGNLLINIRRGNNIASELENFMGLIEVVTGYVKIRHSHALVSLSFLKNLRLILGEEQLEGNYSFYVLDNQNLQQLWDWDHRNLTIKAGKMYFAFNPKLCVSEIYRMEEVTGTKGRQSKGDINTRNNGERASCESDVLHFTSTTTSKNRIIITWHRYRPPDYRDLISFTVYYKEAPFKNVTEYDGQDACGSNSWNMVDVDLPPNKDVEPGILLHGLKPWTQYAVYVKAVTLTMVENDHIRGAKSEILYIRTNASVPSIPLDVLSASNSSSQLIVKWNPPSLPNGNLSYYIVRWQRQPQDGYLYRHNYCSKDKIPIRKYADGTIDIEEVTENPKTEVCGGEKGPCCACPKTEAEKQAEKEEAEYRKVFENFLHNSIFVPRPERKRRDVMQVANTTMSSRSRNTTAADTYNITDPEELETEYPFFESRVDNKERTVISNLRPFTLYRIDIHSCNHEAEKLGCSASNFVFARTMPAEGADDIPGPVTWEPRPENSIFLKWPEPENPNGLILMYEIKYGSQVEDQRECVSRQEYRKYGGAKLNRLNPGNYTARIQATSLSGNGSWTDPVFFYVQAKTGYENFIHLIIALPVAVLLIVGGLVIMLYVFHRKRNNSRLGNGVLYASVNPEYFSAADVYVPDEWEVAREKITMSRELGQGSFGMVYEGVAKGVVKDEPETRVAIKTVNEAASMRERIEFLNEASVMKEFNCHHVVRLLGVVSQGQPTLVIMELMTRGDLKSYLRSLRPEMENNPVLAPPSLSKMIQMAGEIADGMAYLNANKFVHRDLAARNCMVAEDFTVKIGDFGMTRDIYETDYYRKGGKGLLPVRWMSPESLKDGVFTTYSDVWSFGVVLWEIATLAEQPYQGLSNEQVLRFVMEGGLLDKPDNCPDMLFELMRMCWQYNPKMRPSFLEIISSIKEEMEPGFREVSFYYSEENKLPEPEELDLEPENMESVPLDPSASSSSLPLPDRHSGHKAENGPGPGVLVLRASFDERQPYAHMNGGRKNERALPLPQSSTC
Description: as §1, §2, §3

[21] = target: kinase named in conditions (Homo sapiens, UniProt P15056); conditions: BRAF, 10 μM
Description: as §1, §2, §3

[22] = target: kinase named in conditions (Homo sapiens, UniProt P11362); conditions: FGFR1, 10 μM
Description: as §1, §2, §3

[23] = target: kinase named in conditions (Homo sapiens, UniProt P35626); conditions: ADRBK2 (GRK3), 10 μM
Description: as §1, §2, §3

[24] = target: kinase named in conditions (Homo sapiens, UniProt P54760); conditions: EPHB4, 10 μM
Description: as §1, §2, §3

[25] = target: kinase named in conditions (Homo sapiens, UniProt Q9HBY8); conditions: SGK2, 10 μM
Description: as §1, §2, §3

[26] = target: kinase named in conditions (Homo sapiens, UniProt Q15759); conditions: MAPK11 (p38 beta), 10 μM
Description: as §1, §2, §3

[27] = target: kinase named in conditions (Homo sapiens, UniProt Q9Y4K4); conditions: MAP4K5 (KHS1), 10 μM
Sequence of kinase named in conditions (Homo sapiens, UniProt Q9Y4K4) (Q9Y4K4 whole entry): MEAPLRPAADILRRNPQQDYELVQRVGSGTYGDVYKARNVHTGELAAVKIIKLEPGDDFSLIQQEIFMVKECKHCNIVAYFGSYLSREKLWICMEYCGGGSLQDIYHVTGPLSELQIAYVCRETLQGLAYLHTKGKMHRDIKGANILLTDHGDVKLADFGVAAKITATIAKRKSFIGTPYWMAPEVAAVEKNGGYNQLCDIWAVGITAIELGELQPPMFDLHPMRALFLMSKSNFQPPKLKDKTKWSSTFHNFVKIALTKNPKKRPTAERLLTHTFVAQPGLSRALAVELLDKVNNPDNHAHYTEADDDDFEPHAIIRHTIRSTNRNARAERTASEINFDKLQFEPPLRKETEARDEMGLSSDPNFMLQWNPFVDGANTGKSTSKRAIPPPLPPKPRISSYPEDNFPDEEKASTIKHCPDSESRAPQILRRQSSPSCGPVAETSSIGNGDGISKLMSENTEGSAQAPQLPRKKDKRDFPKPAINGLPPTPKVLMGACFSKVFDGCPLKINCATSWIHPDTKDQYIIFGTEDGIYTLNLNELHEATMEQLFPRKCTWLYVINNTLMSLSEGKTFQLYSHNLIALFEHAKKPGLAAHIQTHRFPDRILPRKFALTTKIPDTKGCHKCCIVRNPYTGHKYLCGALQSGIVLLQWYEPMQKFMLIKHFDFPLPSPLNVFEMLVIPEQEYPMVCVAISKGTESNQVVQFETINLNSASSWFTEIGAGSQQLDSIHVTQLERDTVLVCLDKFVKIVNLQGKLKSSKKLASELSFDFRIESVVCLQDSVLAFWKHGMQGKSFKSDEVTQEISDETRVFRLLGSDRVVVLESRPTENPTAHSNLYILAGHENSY
Description: as §1, §2, §3

[28] = target: kinase named in conditions (Homo sapiens, UniProt P51812); conditions: RPS6KA3 (RSK2), 10 μM
Description: as §1, §2, §3

[29] = target: kinase named in conditions (Homo sapiens, UniProt P54753); conditions: EPHB3, 10 μM
Description: as §1, §2, §3

[30] = target: kinase named in conditions (Homo sapiens, UniProt O15146); conditions: MUSK, 10 μM
Sequence of kinase named in conditions (Homo sapiens, UniProt O15146) (O15146 24-869): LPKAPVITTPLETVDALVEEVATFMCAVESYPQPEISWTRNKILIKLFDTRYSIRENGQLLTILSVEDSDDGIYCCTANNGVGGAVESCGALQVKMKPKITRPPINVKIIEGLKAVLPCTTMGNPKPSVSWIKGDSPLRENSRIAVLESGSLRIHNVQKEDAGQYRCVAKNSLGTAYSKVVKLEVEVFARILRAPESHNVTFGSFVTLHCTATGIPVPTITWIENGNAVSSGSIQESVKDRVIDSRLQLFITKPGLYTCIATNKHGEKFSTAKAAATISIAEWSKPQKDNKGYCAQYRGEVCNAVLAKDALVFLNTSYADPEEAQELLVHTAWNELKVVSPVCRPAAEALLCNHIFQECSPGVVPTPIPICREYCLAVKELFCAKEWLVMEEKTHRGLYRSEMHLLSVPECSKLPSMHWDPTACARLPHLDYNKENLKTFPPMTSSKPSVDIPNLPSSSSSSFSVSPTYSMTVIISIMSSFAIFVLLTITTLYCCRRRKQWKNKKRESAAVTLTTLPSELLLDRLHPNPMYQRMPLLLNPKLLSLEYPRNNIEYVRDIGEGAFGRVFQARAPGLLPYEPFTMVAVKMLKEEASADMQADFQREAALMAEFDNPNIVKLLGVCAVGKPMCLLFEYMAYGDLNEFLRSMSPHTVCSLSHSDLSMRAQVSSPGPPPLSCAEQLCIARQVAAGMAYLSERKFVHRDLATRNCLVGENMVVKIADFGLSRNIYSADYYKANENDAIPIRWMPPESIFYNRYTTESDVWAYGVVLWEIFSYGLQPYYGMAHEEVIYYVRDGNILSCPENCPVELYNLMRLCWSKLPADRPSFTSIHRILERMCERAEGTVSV
Description: as §1, §2, §3

[31] = target: kinase named in conditions (Homo sapiens, UniProt P08581, Y1235D); conditions: MET (cMet) Y1235D, 10 μM
Description: as §1, §2, §3

[32] = target: kinase named in conditions (Homo sapiens, UniProt Q8NE63); conditions: HIPK4, 10 μM
Description: as §1, §2, §3

[33] = target: kinase named in conditions (Homo sapiens, UniProt P16234, V561D); conditions: PDGFRA V561D, 10 μM
Description: as §1, §2, §3

[34] = target: kinase named in conditions (Homo sapiens, UniProt P22607, K650E); conditions: FGFR3 K650E, 10 μM
Description: as §1, §2, §3

FC(F)(F)c1c(Cl)ccc(-n2ccnn2)c1Cl [8l, 1-(2,4-Dichloro-3-(trifluoromethyl)phenyl)-1H-1,2,3-triazole]
inhibition at 10 µM [1]: -2% | inhibition at 10 µM [2]: -2% | inhibition at 10 µM [3]: 7% | inhibition at 10 µM [4]: 0% | inhibition at 10 µM [5]: 0% | % Inhibition mean ([6]; LYN B, 10 μM): 7% | % Inhibition mean ([6]; PRKCB2 (PKC beta II), 10 μM): -17% | % Inhibition mean ([6]; SRC N1, 10 μM): 4% | inhibition at 10 µM [7]: 7% | inhibition at 10 µM [8]: 7% | inhibition at 10 µM [9]: 8% | inhibition at 10 µM [10]: 8% | inhibition at 10 µM [11]: 16% | inhibition at 10 µM [12]: 3% | inhibition at 10 µM [13]: -2% | inhibition at 10 µM [14]: 23% | inhibition at 10 µM [15]: 4% | inhibition at 10 µM [16]: -2% | inhibition at 10 µM [17]: 24% | inhibition at 10 µM [18]: 2% | inhibition at 10 µM [19]: 15% | inhibition at 10 µM [20]: -4% | inhibition at 10 µM [21]: 9% | inhibition at 10 µM [22]: -3% | inhibition at 10 µM [23]: -1% | inhibition at 10 µM [24]: 1% | inhibition at 10 µM [25]: 4% | inhibition at 10 µM [26]: 6% | inhibition at 10 µM [27]: -10% | inhibition at 10 µM [28]: -3% | inhibition at 10 µM [29]: -8% | inhibition at 10 µM [30]: -4% | inhibition at 10 µM [31]: 0% | inhibition at 10 µM [32]: -2% | inhibition at 10 µM [33]: -3% | inhibition at 10 µM [34]: -5%
